# “Also recorded” adds a separate entry of the source. Where two headings read alike, the source gives them in different places.
# Tests used:
# [1] = system: Staphylococcus aureus (ATCC33591); experiment: Time kill experiment; details: for course of viable bacterial cell count: at two and four times the MIC
# [2] = system: Staphylococcus aureus; experiment: Spheroplasting activities; format: cell-based; details: for formation of osmotically fragile spheroplasts: Luria broth with 0.3M sucrose, 90 minutes, phase contrast microscope
# Description: Aliquots (100 μl) of an exponential phase culture(A600,0.05) grown in Luria broth supplemented with 0.3M concentration of sucrose were dispensed into test tubes containing different concentration of Compound 1 and 1 μl/ml ampicillin as positive control. The tubes were then incubated at 30° C. with shaking at 140 rpm. After 90 minutes, the cells were examined by phase contrast microscope for any morphological changes or for the presence of spheroplast. To confirm the osmotic fragility of the spheroplast the lytic effect of 2-3 μl of water added under the cover slip was tested.
# [3] = system: MSSA methicillin sensitive staphylococcus aureus; format: cell-based
# [4] = system: Shewanella putrifacians; format: cell-based
# [5] = system: Clostridium perfringens; experiment: microbe, parasite or virus in culture; format: cell-based
# [6] = system: Bacillus cereus; experiment: disc diffusion technique; format: cell-based; details: 150 μg disc, read-out: Sensitivity (width of inhibition zone)
# [7] = system: Proteus morgani; experiment: disc diffusion technique; format: cell-based; details: 150 μg disc, read-out: Sensitivity (width of inhibition zone)
# [8] = system: Serratia marcescens; experiment: disc diffusion technique; format: cell-based
# [9] = system: Bacillus subtilis; experiment: disc diffusion technique; format: cell-based
# [10] = system: Hafnia alvei; experiment: disc diffusion technique; format: cell-based
# [11] = system: Streptococcus group G; experiment: disc diffusion technique; format: cell-based; details: 150 μg disc
# [12] = system: Staphylococcus aureus; experiment: Phase contrast microscopy; format: cell-based; details: 60 μl/ml, immediately after treatment
# Description: (§1) An exponential phase culture (A600, 0.05) of Bacillus subtilis and Staphylococcus aureus grown in Luria broth was treated with 50 μl/ml of Compound 1 for Bacillus subtilis and 60 μl/ml for Staphylococcus aureus and slides were immediately made in 1% agarose using 4 μl of Compound 1 treated cultures, time lapse images were obtained under phase contrast microscope, particular care was taken to minimize the sample exposure to UV light, image grabbing were performed essentially as described by Edwards and Errrington. (Edwards, D. H., and Errington, J.(1997). The Bacillus subtilis […] protein targets to the division septum and control the site specificity of cell division. Mol Microbiol 24:905-915).
# [13] = system: Bacillus subtilis; experiment: Phase contrast microscopy; format: cell-based; details: 50 μl/ml, immediately after treatment
# Description: as §1
# [14] = system: Vibrio cholera; experiment: disc diffusion technique; format: cell-based
# [15] = system: MSSA methicillin sensitive staphylococcus aureus; experiment: disc diffusion technique; format: cell-based
# [16] = system: Enterobacter faecalis; experiment: disc diffusion technique; format: cell-based
# [17] = system: Escherichia coli; format: cell-based
# [18] = system: Salmonella typhi; experiment: disc diffusion technique; format: cell-based
# [19] = system: Staphylococcus epidermidis; format: cell-based
# [20] = system: Proteus morgani; format: cell-based
# [21] = system: Enterobacter faecalis; format: cell-based
# [22] = system: Bacillus steriothermophilus; experiment: disc diffusion technique; format: cell-based; details: 150 μg disc, read-out: Sensitivity (width of inhibition zone)
# [23] = system: Escherichia coli; experiment: disc diffusion technique; format: cell-based; details: 150 μg disc, read-out: Sensitivity (width of inhibition zone)
# [24] = system: Shewanella putrifacians; experiment: disc diffusion technique; format: cell-based; details: 150 μg disc, read-out: Sensitivity (width of inhibition zone)
# [25] = system: Proteus mirabilis; experiment: disc diffusion technique; format: cell-based
# [26] = system: Staphylococcus epidermidis; experiment: disc diffusion technique; format: cell-based
# [27] = system: Enterococcus faecium; experiment: disc diffusion technique; format: cell-based; details: 150 μg disc, read-out: Sensitivity (width of inhibition zone)
# [28] = system: Clostridium sporogenes; experiment: microbe, parasite or virus in culture; format: cell-based
# [29] = system: Streptococcus sp; format: cell-based
# [30] = system: Bacillus cereus; format: cell-based
# [31] = system: Staphylococcus aureus; format: cell-based
# [32] = Heat stability test (antibacterial activity by disk diffusion after heating); format: physicochemical
# Description: […] After the treatment, the liquid in each tube was evaporated completely and Compound 1 was re-dissolved in methanol to give an appropriate concentration. Then antibacterial activity was evaluated in triplicate by the disk diffusion method.
# [33] = system: Vibrio harveyi; experiment: disc diffusion technique; format: cell-based; details: 150 μg disc, read-out: Sensitivity (width of inhibition zone)
# [34] = system: Candida albicans; experiment: disc diffusion technique; format: cell-based
# [35] = system: Clostridium sporogenes; experiment: microbe, parasite or virus in culture; format: cell-based; details: Clostridium sporogenes, read-out: Sensitivity (width of inhibition zone)
# [36] = system: Enterococcus faecium; format: cell-based
# [37] = system: Vibrio harveyi; format: cell-based
# [38] = system: Vibrio cholera; format: cell-based; details: Vibrio cholerae
# [39] = system: Hafnia alvei; format: cell-based
# [40] = system: Klebsiella aerogenes; experiment: disc diffusion technique; format: cell-based; details: 150 μg disc
# [41] = system: Serratia marcescens; format: cell-based
# [42] = system: Gram-positive bacteria; format: cell-based
# Description: (§2) The minimum inhibitory concentration (MIC) of Compound 1 was determined by the standard microdilution method described in the national committee for clinical laboratory standards (National Committee for Clinical Laboratory Standards, 1997. Method for dilution antimicrobial susceptibility test for bacteria, that grow aerobically, 4th ed., p, 1-29. National Committee for Clinical Laboratory Standards) using Muller Hinton broth medium (Oxoid) incubated at 37° C. for 24 h. […] This substance was slightly active against Streptococcus sp for which the MIC was 200 μg/ml.
# [43] = system: Gram negative bacteria; format: cell-based
# Description: as §2
# [44] = system: Enterococcus faecalis; experiment: disc diffusion technique; format: cell-based; details: 150 μg disc, read-out: Sensitivity (width of inhibition zone)
# [45] = system: Bacillus subtilis; experiment: Complete killing of Bacillus subtilis; format: cell-based
# [46] = system: Bacillus steriothermophilus; format: cell-based
# [47] = system: Proteus mirabilis; format: cell-based
# [48] = system: Candida albicans; format: cell-based; details: MIC determination
# [49] = system: Salmonella typhi; format: cell-based; details: Salmonella enterica
# [50] = system: Enterococcus faecalis; format: cell-based
# [51] = system: Clostridium perfringens; format: cell-based
# [52] = system: Staphylococcus aureus; experiment: Bacteriolytic assay; format: cell-based; details: 600 nm, 30° C., 0-360 min, various concentrations
# Description: The seed culture of Staphylococcus aureus in Luria broth (LB) were washed twice with sterile distilled water containing 0.9% sodium chloride and the absorbance was adjusted to 0.05 at 600 nm. The bacterial cell suspension was divided into aliquots of 5 ml each placed in sterile test tube and exposed to Compound 1 at various concentration, untreated bacterial suspension were used as the negative control.
# [53] = system: Bacillus subtilis; format: cell-based
# [54] = 150 μg disc, read-out: Sensitivity (width of inhibition zone)
smiles,measurement,setting,value
"CN[C@H](CC(C)C)C(=O)N[C@H]1C(=O)N[C@@H](CC(N)=O)C(=O)N[C@H]2C(=O)N[C@H]3C(=O)N[C@H](C(=O)N[C@H](C(=O)O)c4cc(O)cc(O)c4-c4cc3ccc4O)[C@H](O)c3ccc(c(Cl)c3)Oc3cc2cc(c3O[C@@H]2O[C@H](CO)[C@@H](O)[C@H](O)[C@H]2O[C@H]2C[C@](C)(N)[C@H](O)[C@H](C)O2)Oc2ccc(cc2Cl)[C@H]1O [vancomycin, reference compound]",course of viable bacterial cell count,[1],decreased gradually
"CC1(C)S[C@@H]2[C@H](NC(=O)[C@H](N)c3ccccc3)C(=O)N2[C@H]1C(=O)O [ampicillin, reference compound]",formation of osmotically fragile spheroplasts,[2],observed
same,course of viable bacterial cell count,[1],decreased gradually
"Cc1cc(O)c2c(c1)C=CC(C)(c1ccoc1)C2 (centres unmarked) [Compound 1, 7-(3-furyl)-3,7-dimethyl-7,8-dihydro-1-naphthalenol]",MIC,[3],60 µg/mL
same,MIC,[4],75 µg/mL
same,zone of inhibition at 150 µg/disc,"[5]; Clostridium perfringens, read-out: Sensitivity (width of inhibition zone)",10 to 15 mm
same,antibacterial activity,"[5]; disc diffusion, anaerobic Clostridium perfringens",less active
same,zone of inhibition at 150 µg/disc,[6],18 to 30 mm
same,zone of inhibition at 150 µg/disc,[7],18 to 30 mm
same,zone of inhibition at 150 µg/disc,"[8]; 150 μg disc, Serratia marcescens, read-out: Sensitivity (width of inhibition zone)",15 to 20 mm
same,antibacterial activity,[8]; Serratia marcesens,active; also recorded: activity
same,formation of osmotically fragile spheroplasts,[2],did not induce
same,killing of cells in osmotically protected medium,[2]; Staphylococcus aureus,killed
same,antibacterial activity,[9],active; also recorded: activity
same,zone of inhibition at 150 µg/disc,[9]; [54],18 to 30 mm
same,antibacterial activity,[10],active; also recorded: activity
same,zone of inhibition at 150 µg/disc,[10]; [54],15 to 20 mm
same,Sensitivity (width of inhibition zone),[11],−
same,morphological change of treated cells (time lapse images),[12],complete lyses
same,morphological change of treated cells (time lapse images),[13],uniform and consistent decrease in size of cells
same,antibacterial activity,[14],active; also recorded: activity
same,antibacterial activity,[15]; Staphylococcus aureus MSSA,active; also recorded: activity
same,zone of inhibition at 150 µg/disc,"[15]; Staphylococcus aureus, 150 μg disc, MSSA, read-out: Sensitivity (width of inhibition zone)",18 to 30 mm
same,antibacterial activity,[16],active; also recorded: activity
same,MIC,[17],75 µg/mL
same,zone of inhibition at 150 µg/disc,"[18]; Salmonella enterica, TYPHI, read-out: Sensitivity (width of inhibition zone)",15 to 20 mm
same,antibacterial activity,"[18]; disc diffusion, Salmonella typhi",active; also recorded: activity
same,MIC,[19],50 to 100 µg/mL
same,MIC,"[19]; Staphylococcus epidermidis, read-out: MIC",50 µg/mL
same,MIC,[20],75 µg/mL
same,MIC,[21],100 µg/mL
same,zone of inhibition at 150 µg/disc,[22],18 to 30 mm
same,zone of inhibition at 150 µg/disc,[23],10 to 15 mm
same,zone of inhibition at 150 µg/disc,[24],10 to 15 mm
same,antibacterial activity,[25],active; also recorded: activity
same,zone of inhibition at 150 µg/disc,[25]; [54],18 to 30 mm
same,zone of inhibition at 150 µg/disc,"[26]; 150 μg disc, Staphylococcus epidermidis, read-out: Sensitivity (width of inhibition zone)",18 to 30 mm
same,antibacterial activity,[26]; Staphylococcus epidermids,active; also recorded: activity
same,zone of inhibition at 150 µg/disc,[27],18 to 30 mm
same,MIC,[28],125 µg/mL
same,MIC,[29],200 µg/mL
same,MIC,[30],60 µg/mL
same,MIC,[31]; Staphylococcus aureus,50 to 100 µg/mL
same,MIC,"[31]; Staphylococcus aureus (ATCC33591), stated in time kill experiment, read-out: MIC",50 µg/mL
same,antibacterial activity after heat treatment,[32]; at 200° C.,completely lost
same,antibacterial activity after heat treatment,[32]; treatment at 120° C.,significantly reduced
same,zone of inhibition at 150 µg/disc,[33],18 to 30 mm
same,activity,[34],not active
same,Sensitivity (width of inhibition zone),[34]; 150 μg disc,−
same,zone of inhibition at 150 µg/disc,[35],10 to 15 mm
same,MIC,[36],50 µg/mL
same,MIC,[37],75 µg/mL
same,MIC,[38],60 µg/mL
same,MIC,[39],100 µg/mL
same,MIC,"[39]; Hafnia alvei, read-out: MIC",100 µg/mL
same,Sensitivity (width of inhibition zone),[40],−
same,MIC,[41],60 µg/mL
same,MIC,"[41]; Serratia marcescens, read-out: MIC",60 µg/mL
same,MIC,[42],50 to 75 µg/mL
same,MIC,[43],75 to 125 µg/mL
same,zone of inhibition at 150 µg/disc,[44],18 to 30 mm
same,concentration that completely killed,[45],100 µg/mL
same,MIC,[46],50 to 60 µg/mL
same,MIC,"[46]; Bacillus steriothermophilus, read-out: MIC",50 µg/mL
same,MIC,[47],75 µg/mL
same,MIC,"[47]; Proteus mirabilis, read-out: MIC",75 µg/mL
same,activity against Candida albicans,[48],not found active
same,MIC,[49],75 µg/mL
same,concentration able to kill completely,[1]; Staphylococcus aureus,125 µg/mL
same,exposure time after which number of viable bacterial cells decreased,[1]; at MIC 50 μg/ml,8 h
same,course of viable bacterial cell count,[1],decreased drastically
same,time after which viable count decreased drastically,[1]; four times the MIC,1 h
same,killing rate compared with test antibiotics,"[1]; same concentration and length of exposure, vs vancomycin, nisin, tetracycline, ampicillin",much higher
same,bactericidal activity,"[1]; time kill, Staphylococcus aureus",rapidly bactericidal
same,time after which viable count decreased drastically,[1]; two times the MIC,2 h
same,MIC,[50],50 µg/mL
same,MIC,[51],100 µg/mL
same,absorbance of Staphylococcus aureus cell suspension (lysis),[52],Reduction of the absorbance
same,MIC,[53],50 to 60 µg/mL
same,MIC,"[53]; Bacillus subtilis, read-out: MIC",50 µg/mL
